The text below walks through data of BindingDB's records for doi:10.1124/jpet.104.066787 (Georgetown University, 2004).

“And” between values parts separate entries of the source, which are not always exact repeats. Equal values may be shown once.

Assay [1] concerns the target Neuronal acetylcholine receptor subunit alpha-3 (Rattus norvegicus, UniProt P04757).
The target in assay [2] is Neuronal acetylcholine receptor subunit alpha-2 (Rattus norvegicus, UniProt P12389).
Assay [3] addresses Neuronal acetylcholine receptor subunit alpha-4 (Rattus norvegicus, UniProt P09483).
Assay [4] has as its target Nicotinic acetylcholine receptor (Rattus norvegicus).

Chain of Neuronal acetylcholine receptor subunit alpha-4 (P09483 whole entry): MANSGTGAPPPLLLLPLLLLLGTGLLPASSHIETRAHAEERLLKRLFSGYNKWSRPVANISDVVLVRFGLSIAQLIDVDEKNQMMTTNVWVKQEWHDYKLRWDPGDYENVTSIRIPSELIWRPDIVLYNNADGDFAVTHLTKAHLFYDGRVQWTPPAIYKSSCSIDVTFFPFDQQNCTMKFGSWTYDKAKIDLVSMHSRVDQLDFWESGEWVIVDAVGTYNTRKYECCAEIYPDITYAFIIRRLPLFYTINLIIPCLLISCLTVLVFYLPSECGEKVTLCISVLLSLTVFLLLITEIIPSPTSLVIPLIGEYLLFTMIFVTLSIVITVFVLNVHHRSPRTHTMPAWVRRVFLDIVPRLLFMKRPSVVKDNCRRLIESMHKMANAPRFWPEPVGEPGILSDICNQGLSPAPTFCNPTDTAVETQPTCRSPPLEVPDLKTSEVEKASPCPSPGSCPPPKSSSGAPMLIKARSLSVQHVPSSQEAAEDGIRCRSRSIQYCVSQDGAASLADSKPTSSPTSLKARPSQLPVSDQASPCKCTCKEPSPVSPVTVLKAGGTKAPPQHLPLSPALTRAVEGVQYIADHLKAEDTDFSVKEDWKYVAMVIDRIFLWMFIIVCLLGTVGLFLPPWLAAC
Chain of Neuronal acetylcholine receptor subunit alpha-2 (P12389 whole entry): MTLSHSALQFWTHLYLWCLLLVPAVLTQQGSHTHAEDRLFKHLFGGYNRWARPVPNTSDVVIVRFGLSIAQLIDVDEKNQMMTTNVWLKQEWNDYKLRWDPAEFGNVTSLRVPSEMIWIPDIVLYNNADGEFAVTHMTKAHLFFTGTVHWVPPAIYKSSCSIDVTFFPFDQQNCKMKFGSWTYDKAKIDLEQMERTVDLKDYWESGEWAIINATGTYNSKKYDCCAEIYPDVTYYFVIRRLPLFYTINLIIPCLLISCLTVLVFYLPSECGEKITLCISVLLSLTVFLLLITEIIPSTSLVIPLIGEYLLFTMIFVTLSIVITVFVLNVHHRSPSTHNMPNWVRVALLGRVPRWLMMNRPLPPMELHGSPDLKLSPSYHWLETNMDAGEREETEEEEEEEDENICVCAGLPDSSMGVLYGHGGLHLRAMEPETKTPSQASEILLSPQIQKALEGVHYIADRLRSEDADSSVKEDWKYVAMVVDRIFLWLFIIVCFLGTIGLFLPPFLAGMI
Chain of Neuronal acetylcholine receptor subunit alpha-3 (P04757 whole entry): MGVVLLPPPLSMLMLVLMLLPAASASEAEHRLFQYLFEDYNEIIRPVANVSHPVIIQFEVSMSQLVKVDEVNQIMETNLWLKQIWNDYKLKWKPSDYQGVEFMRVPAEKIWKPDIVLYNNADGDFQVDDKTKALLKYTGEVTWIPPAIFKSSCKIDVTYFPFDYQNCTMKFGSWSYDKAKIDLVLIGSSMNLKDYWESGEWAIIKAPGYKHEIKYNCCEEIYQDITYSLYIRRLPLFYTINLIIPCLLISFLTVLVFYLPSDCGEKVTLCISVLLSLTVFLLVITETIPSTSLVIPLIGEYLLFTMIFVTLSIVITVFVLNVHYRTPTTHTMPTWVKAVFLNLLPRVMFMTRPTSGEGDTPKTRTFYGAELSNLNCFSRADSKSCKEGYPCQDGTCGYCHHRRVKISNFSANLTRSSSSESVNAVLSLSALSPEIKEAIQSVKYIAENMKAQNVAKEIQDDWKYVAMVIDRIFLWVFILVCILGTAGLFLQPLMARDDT

The Ki is a dissociation constant, usually derived from enzyme kinetics or from competition with a known ligand. Higher therefore signals weaker binding. With `CO[C@H]1CC=C2CCN3CCC4=C(CC(=O)OC4)[C@]23C1`, the Ki in assay [1] is 3800 nM and > 10000 nM; in assay [2], 6200 nM and > 10000 nM.
For `CC(=O)OCC[N+](C)(C)C` [2-acetoxyethyl(trimethyl)ammonium;perchlorate], in assay [2], the affinity, expressed as Ki, was 11 nM.
Take `C[N+](C)(C)CCO` [2-hydroxy-N,N,N-trimethylethanaminium]: the Ki in assay [3], in assay [1] and in assay [2] was more than 10000 nM throughout.
With `C[N+](C)(C)CCOC(N)=O` [(2-Hydroxyethyl)trimethyl ammonium chloride carbamate], the Ki in assay [3] was 590 nM and 1100 nM; in assay [1], 1100 nM and 4700 nM; in assay [2], 260 nM and 930 nM.
`c1cncc(OCC2CCN2)c1` (stereo unspecified) [A-85380]: in assay [2], the Ki was 18 nM.
As for `O=c1cccc2n1CC1CNCC2C1` (stereo unspecified) [CAS_485-35-8], the Ki in assay [3] was 1.5 nM and 2.1 nM; in assay [1] it was 37 nM and 220 nM; in assay [2], 1.1 nM and 5.4 nM.
In the case of `CCN1CC2(COC(=O)c3ccccc3-n3c(O)cc(C)c3O)CCC(OC)C34C5CC6C(OC)CC(O)(C5C6OC)C(O)(C(OC)C23)C14` (stereo unspecified) [CAS_21019-30-7], the Ki was > 10000 nM and 6400 nM in assay [3]; more than 10000 nM in assay [2].
`Ic1ccc(C2CC3CCC2N3)cn1` (stereo unspecified) [IPH]: the Ki in assay [3] is 0.15 nM; in assay [4] it was 0.33 nM; in assay [1], 0.18 nM and 0.98 nM; in assay [2], 0.11 nM and 0.15 nM.
With `CNC1(C)C2CCC(C2)C1(C)C` (stereo unspecified) [Methyl-(2,3,3-trimethyl-bicyclo[2.2.1]hept-2-yl)-amine(Mecamylamine)], the Ki in assay [3] and in assay [2] was more than 10000 nM throughout.
